Patent US7579018B2, “Microbiological control in aqueous systems” (Albemarle Corporation, priority 2000, dated 2009)

Tests used:
[1] = system: heterotrophic bacteria; test: Cooling tower field trial, Example 2: heterotrophic bacteria plate counts; conditions: slug dose 3 times/week, 0.5 ppm free Cl2; cooling tower water
Description: (§1) The effectiveness of DBDMH and of BCDMH in microbiological control in cooling tower water was investigated in comparative tests. The cooling tower consisted of two 500-ton units in a crossflow design. The total system-contained volume was 14,000 gallons, and the tower contained medium efficiency film fill. Water from the tower cooled the coils of two 300-ton air conditioners (chillers). The tower typically operated at a pH of about 9.1 and 4 cycles of concentration. Blowdown was controlled by conductivity. Make-up water consisted of softened city water and which was of good quality. The make-up water was very low in calcium (<10 mg/L) but high in pH (8.7). The alkalinity was 145 mg/L (as CaCO3), and the silica level was 28 mg/L. The tower employed a conventional polyphosphate/molybdate/phosphonate program to provide corrosion and deposit control.
The BCDMH (20 lbs) was introduced to the water using 20-gram, 1-inch tablets charged to a solid halogen feeder (Neptune model BT-40, Neptune Chemical Pump Co., Inc., Lansdale, Pa.). Before each dose, the cooling tower water was sampled and enumerated for heterotrophic bacteria plate counts. Then the tower was slug dosed three times a week with BCDMH. Slug dosing was accomplished by diverting through the feeder containing the tablets a sidestream of the recirculating water for about 1 to 5 hours until a “free chlorine” dose of about 0.5 mg/L (as “free chlorine”) was obtained. The “total chlorine” dose was measured at the same time. After each dose the cooling water was sampled and enumerated for heterotrophic bacteria plate counts. As necessary, the feeder was replenished with more BCDMH tablets.
For example, before the biocide dose the bacteria levels in the bulk water ranged from 10^5 to 10^4 CFUs/mL. After the biocide dose the bacteria levels in the bulk water were reduced to 10^4 to 10^3.
After emptying the feeder of BCDMH tablets, 20 lbs of DBDMH granules was charged into the feeder. Thereupon the same procedure as described above for the BCDMH was carried out except for the fact that is was unnecessary to add any additional DBDMH to the feeder during the 30-day test period. In fact, the total weight of DBDMH consumed during the test was only 7 lbs.

[2] = Iodometric titration of clear saturated stock solutions; assay type: physicochemical; conditions: 1 gram powder slurried in 100 mL deionized water, stirred 20 minutes, filtered
Method: Stock solutions of DBDMH and of BCDMH were prepared by slurrying 1 gram of the respective powders in 100 mL of deionized water. After stirring for 20 minutes, the insolubles were filtered to yield clear saturated stock solutions of DBDMH and BCDMH, respectively. Iodometric titration of the stock solutions using the potassium iodide-sodium thiosulfate method indicated the DBDMH solution contained 580 mg/L (as total chlorine), and the BCDMH solution contained 1100 mg/L (as total chlorine).

[3] = system: aerobic bacteria; test: Cooling tower field trial of 51 days, Example 3: bacteria levels
Description: as §1, with “Using the same cooling tower as used in Example 2, the effectiveness” for “The effectiveness”, “of 1,3-dibromo-5,5-dimethylhydantoin” for “of DBDMH and of BCDMH”, “was investigated. As noted above, the” for “was investigated in comparative tests. The”
The 1,3-dibromo-5,5-dimethylhydantoin was introduced to the water using granules charged to a solid halogen feeder (Neptune model BT-40, Neptune Chemical Pump Co., Inc., Lansdale, Pa.). The field trial lasted 51 days. The tower was slug dosed three times a week with 1,3-dibromo-5,5-dimethylhydantoin. Slug dosing was accomplished by diverting a sidestream of the recirculating water through the feeder containing the granules for about 1 to 5 hours until a total halogen residual of about 0.75 mg/L (as Cl2) was obtained. This biocide program reduced bacterial levels in the bulk water by an average of 2 orders of magnitude, with bacteria levels in the bulk water after the biocide dose ranging from 10^1 to 10^3 CFUs/mL.
The results from the average of several analyses conducted during the course of this field trial using DBDMH were as follows: In the microbiological tests, the levels of aerobic bacteria were in the range of 6×10^0 to 3×10^3 CFUs/mL in the cooling tower water and 10^0 in the make-up water. […]

SMILES: CC1(C)C(=O)N(Br)C(=O)N1Br [DBDMH, 1,3-dibromo-5,5-dimethylhydantoin]
- Bacteria reduction [1]: 1.5-2 logs
- halogen content of saturated stock solution (as total chlorine) [2]: 580 mg/L
- levels of aerobic bacteria ([3]; in the cooling tower water, several analyses during field trial): 6×10^0 to 3×10^3 CFUs/mL
- bacteria levels in the bulk water after the biocide dose ([3]; slug dosed three times a week to total halogen residual about 0.75 mg/L (as Cl2)): 10^1 to 10^3 CFUs/mL
- average reduction of bacterial levels in the bulk water ([3]; slug dosed three times a week to total halogen residual about 0.75 mg/L (as Cl2), 51 days): 2 orders of magnitude
